Consider 4 molecules from BindingDB's records for doi:10.1016/j.ejmech.2010.03.048 (2010).

The assay has as its target Sigma non-opioid intracellular receptor 1 (Cavia porcellus, UniProt Q60492). The assay is described as follows: Displacement of [3H](+)-pentazocine from sigma 1 receptor in guinea pig brain membrane.

Chain of Sigma non-opioid intracellular receptor 1 (Q60492 whole entry): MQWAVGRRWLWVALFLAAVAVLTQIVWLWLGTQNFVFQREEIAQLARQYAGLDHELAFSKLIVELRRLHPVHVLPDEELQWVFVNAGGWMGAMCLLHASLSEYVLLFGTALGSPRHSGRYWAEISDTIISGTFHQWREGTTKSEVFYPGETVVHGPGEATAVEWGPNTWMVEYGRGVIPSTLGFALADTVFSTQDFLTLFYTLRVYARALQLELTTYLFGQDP

On to `OCC[C@H]1Cc2ccccc2C2(CCN(CCCc3ccccc3)CC2)O1` [(R)-2-(1'-(3-phenylpropyl)spiro[isochroman-1,4'-piperidine]-3-yl)ethanol], for which the Ki came to 68 nM. With `OCC[C@H]1Cc2ccccc2C2(CCN(CC3CCCCC3)CC2)O1` [(R)-2-(1'-(cyclohexylmethyl)spiro[isochroman-1,4'-piperidine]-3-yl)ethanol], the Ki came to 9 nM. Consider `OCC[C@H]1Cc2ccccc2C2(CCN(Cc3ccccc3)CC2)O1` [(R)-2-(1'-benzylspiro[isochroman-1,4'-piperidine]-3-yl)ethanol], for which the affinity corresponds to a Ki of 48 nM. The result for `OCC[C@@H]1Cc2ccccc2C2(CCN(Cc3ccccc3)CC2)O1` [(S)-2-(1'-benzylspiro[isochroman-1,4'-piperidine]-3-yl)ethanol] reads 10 nM.

One may read the Ki as the equilibrium dissociation constant of an inhibitor or competing ligand from its target.
